Test [1] concerns Arabidopsis thaliana shoot cultures. The experiment in a line: Phytotoxicity (MIC, shoot and root differentiation) on Arabidopsis thaliana in MS basal medium. The class given is in vivo. The note with it: for minimum inhibitory concentration (MIC): Arabidopsis thaliana shoot cultures in vitro. The method, then: (§1) Catechin and 2, 4-D were administered in MS basal medium at different concentration range (1-200 μg ml^−1) to check for the minimum inhibitory concentration (MIC). i) 10 μg ml^−1; ii) 60 μg ml^−1; iii) 100 μg ml^−1. • B) Effect of catechin on shoot and root differentiation in A. thaliana plants on the 14th day. Catechin was compared for phytoxicity against 2, 4-D and was administered at 100 μg ml^−1 concentration in MS basal medium (5 ml). Treatments were as follows: 1) Untreated control; 2) (+)-catechin; 3) (−)-catechin; 4) (±)-catechin; 5) (+/−) co-administered catechin; 6) (±) catechin isolated from root exudates of C. maculosa; 7) 2, 4-D. [Means of different letters at the top of each bar indicate significant difference (p<0.05) (SEM±52df)]. • C) Antibacterial activity of (+)-catechin on different bacterial strains. i) Tube antibacterial assay. 1) Control (without (+)-catechin); 2) (+)-catechin 100 μg ml^−1; 3) (+)-catechin 150 μg ml^−1; 4) (+)-catechin 200 μg ml^−1. Bacterial cultures were grown overnight at 24° C. in liquid LB media to an optical density of 0.2 at 600 nm. Different concentrations (100-200 μg ml^−1) of (+)-catechin were administered to the bacteria-containing LB media. Optical density at 600 nm was checked after 24 hrs of incubation to measure bacterial inhibition in tubes. Antibacterial activity was assayed on both tubes and 35 mm plates. ii) Antibacterial activity of (+)-catechin on Pseudomonas fluorescens analyzed in a petri dish assay. Treatments on petri dish refers to the following concentrations: 1) Methanol ((+)-catechin solvent) was used as a control; II) (−)-catechin (100 μg ml^−1); III) (+)-catechin (100 μg/ml); IV) (±)-catechin (200 μg ml^−1); V) (±)-catechin (200 μg ml^−1) isolated from root exudates of C. maculosa.
Root exudates of in vitro-grown C. maculosa plants were assayed for their effects on the phenotypic response and germnination efficiency of various weeds, including Linaria dalmatica (Dalmatian toadflax), Verbascum thapsus (common mullein), Bromos tectorum (downy brome), Kochia scoparia (kochia), Centaurea diffusa (diffuse knapweed), the model plant Arabidopsis thaliana and crops such as wheat (Triticum aestivum) and tomato (Lycopersicon esculentum). Ten day old seedlings and seeds of C. maculosa, L. dalmatica, V. thapsus, B. tectorum, K. scoparia, C. diffusa, A. thaliana, T. aestivum and L. esculetum were placed on MS basal medium in petri dishes after initial surface sterilization. Petri dishes were kept under a 16 hour light and 8 hour dark photoperiod in an incubator (Lab-Line). An additional objective was to check the effect of allelochemicals from C. maculosa on growth and differentiation of food crops such as Triticum aestivum (Wheat) and Lycopersicon esculetum (Tomato). This was of interest as wheat is known to produce an allelopathic effect in its root exudates (H. Wu, T. Haig, J. Prateley, D. Lemerle, M. An, J. Food Agric Chem. 48, 5321 (2000)). Root exudates collected from non-elicited and elicited cultures of C. maculosa were administered in different concentrations (1-3 ml v/v) over the surface sterilized seeds and seedlings to analyze their phytotoxic effects. […] After incubation, growth parameters such as length of shoots, number of shoots and length of primary root of the treated and untreated plants were measured. […]

Another test relates to C. maculosa. The experiment in a line: Effect on C. maculosa itself (autotoxicity). It counts as in vivo, Centaurea maculosa. The note with it: FIG. 1(b and c). The method, then: (§2) Root exudates collected from non-elicited cultures of C. maculosa were administered in different concentrations (1-3 ml v/v) in the MS basal liquid media containing different seedlings to analyze phenotypic explant response. ii) Effect of fungal cell wall (CWE) elicited root exudates of C. maculosa on shoots and root differentiation of different weeds and crop plants on 14th day. Fungal cell wall extracts (CWE) from Phytophthora cinnamoni and Rhizoctonia solani were used. Data represents the percent inhibition as compared to the untreated control in shooting and rooting response in various tested seedlings against non-elicited and elicited root exudates of C. maculosa. The seedlings tested against C. maculosa exudates were as follows:1: C. maculosa; 2: L. dalmatica; 3: V. thapsus; 4: B. tectorum, 5: K. scoparia; 6: C. diffusa; 7: A. thaliana 8: T. aestivum; 9: L. esculentum. [Means of different letters at the top of each bar indicate significant difference (p<0.05) (SEM±52df)]. • B) Effect of purified HPLC-fraction from C. maculosa root exudates on morphological differentiation of various weeds and food crops. HPLC peaks were collected and administered into 5 ml MS basal medium at 100 μg ml^−1 concentration; fractions were added in different permutations. i) C. maculosa; ii) C. diffusa; iii) K scoparia; iv) L. dalmatica; v) A.thaliana; vi) T. aestivum. […]

Test [2] concerns Agrobacterium rhizogenes (15834). Kind of test: Tube antibacterial assay (OD 600 nm after 24 hrs). It counts as cell-based. The note with it: even at higher concentrations. How it is done: as §1
(§3) Antibacterial plate assay was performed on a bacterial culture grown overnight; both the enantiomers and the racemic catechin were added to the paper discs and allowed to dry under laminar hood conditions. […] Visual observations for inhibition zone were recorded after 24 hrs. […]

The subject of a further test is Xanthomonas campestris. Kind of test: Tube antibacterial assay (OD 600 nm after 24 hrs). The conditions noted are these: 100-200 μg/ml. The class given is cell-based. How it is done: as §1, §3
For a further test, the system named is Erwinia carotovora. Kind of test: Tube antibacterial assay (OD 600 nm after 24 hrs). It counts as cell-based. The conditions noted are these: 100-200 μg/ml. How it is done:
as §1, §3

The subject of a further test is soil borne bacteria. The experiment in a line: Antibacterial assay on soil borne bacteria (six strains). It counts as cell-based. The note with it: six bacterial strains / soil-borne pathogens tested. The method, then:
as §1, §3

A further test concerns Pseudomonas fluorescens. Kind of test: Tube and plate antibacterial assay. It counts as cell-based. The conditions noted are these: 100-200 μg/ml, 24 hrs. How it is done: Catechin and 2, 4-D were administered in MS basal medium at different concentration range (1-200 μg ml^−1) to check for the minimum inhibitory concentration (MIC). i) 10 μg ml^−1; ii) 60 μg ml^−1; iii) 100 μg ml^−1. • B) Effect of catechin on shoot and root differentiation in A. thaliana plants on the 14th day. Catechin was compared for phytoxicity against 2, 4-D and was administered at 100 μg ml^−1 concentration in MS basal medium (5 ml). Treatments were as follows: 1) Untreated control; 2) (+)-catechin; 3) (−)-catechin; 4) (±)-catechin; 5) (+/−) co-administered catechin; 6) (±) catechin isolated from root exudates of C. maculosa; 7) 2, 4-D. [Means of different letters at the top of each bar indicate significant difference (p<0.05) (SEM±52df)]. • C) Antibacterial activity of (+)-catechin on different bacterial strains. i) Tube antibacterial assay. […] Antibacterial activity was assayed on both tubes and 35 mm plates. ii) Antibacterial activity of (+)-catechin on Pseudomonas fluorescens analyzed in a petri dish assay. […]
as §3

The subject of test [3] is various weeds and crop plants. Kind of test: Phytotoxic effect on seedlings of weeds and crop plants. It counts as in vivo. The conditions noted are these: incl. C. diffusa. The method, then: as §2

Entries after “also recorded” stand apart in the source; their conditions may differ.

In the case of `Oc1cc(O)c2c(c1)OC(c1ccc(O)c(O)c1)C(O)C2` (racemic) [(±)-catechin], the “minimum inhibitory concentration (MIC)” value in test [1] was “about 100 μg/ml”. Moreover, the “effect compared with root exudated (±)-catechin” value in test [1] (commercially available racemate, FIG. 2(a and b)) is “same effect as root exudated (±)-catechin”. For the same molecule, in the test on C. maculosa, the “resistance of C. maculosa” value was “strongly resistant”.
As to `O=C(O)COc1ccc(Cl)cc1Cl` [2,4-D, 2,4-dichlorophenoxyacetic acid, reference compound], the “minimum inhibitory concentration (MIC)” value in test [1] turned out to be 10 mg/L.
In the case of `Oc1cc(O)c2c(c1)O[C@H](c1ccc(O)c(O)c1)[C@@H](O)C2` [(+)-catechin], in test [2], the inhibition of growth entry was “not affected”. The “inhibition of growth (decrease in optical density)” value in the test with Xanthomonas campestris, in the test on Erwinia carotovora and with Pseudomonas fluorescens was “distinct inhibition of growth” each time. Moreover, the “allelochemical activity / phytotoxicity” value in test [1] (A. thaliana, FIGS. 2 a, b) is reported as “not phytotoxic; also recorded: did not show allelochemical activity”. In the test on soil borne bacteria, the antibacterial activity entry is reported as “antibacterial activity against root infesting pathogens; also recorded: most showed a degree of inhibition”.
For (−)-catechin [(−)catechin], the “doses accounting for the allelochemical activity (as low as)” value in test [1] (A. thaliana, FIGS. 2 a, b) was 50 to 60 µg/mL. Also, the “spectrum of phytotoxicity / allelochemical activity” value in test [3] is reported as “broad-spectrum phytotoxicity”. Moreover, the antibacterial activity entry in the test with soil borne bacteria is reported as “failed to show any antibacterial activity”; in the test with soil borne bacteria (listed as (−)-catechin), “does not show”.

Values taken from patent publication US20050043178A1, “Herbicidal and bacteriostatic compounds from centaurea maculosa” (Colorado State University Research Foundation, priority 2001, published 2005).
